In paper PMC12116161, “An Elastase Inhibitor ShSPI from Centipede Attenuates Bleomycin-Induced Pulmonary Fibrosis” (Toxins, 2025):

Test system: MCP-1, IL-6, IL-1β, IFN-γ, IL-10, TGF-β mRNA in lung tissue
Experiment: RT-qPCR of inflammatory factor mRNA in lung tissue of IPF mice
Format: in vivo, ICR mice
Conditions: pirfenidone 200 mg/kg oral gavage once daily for 7 days, BLM-induced IPF mice
Procedure: Animal Model Preparation: The peptide powder was dissolved in pre-cooled saline and filtered to remove bacteria, then a spray needle was attached to a micro-syringe to aspirate the peptide solution. A total of 56 ICR mice were anesthetized by intramuscular injection of avertin. After anesthesia, the mice were fixed supine, the tongue was gently pulled, the vocal folds were exposed with a laryngoscope, the trachea was gently inserted, and the nebulized solution was rapidly pushed and injected. Each mouse was administered 100 μL of a 0.4 mg/mL bleomycin solution via tracheal spray, with the treatment performed once. Seven days after modeling, the mice were randomly grouped for ShSPI treatment based on weight loss scores. An additional 8 mice received the vehicle (normal saline) and were designated as the sham group.
A total of 48 suitable mice were randomly divided into five groups: the model control group (MC), the positive control group (PC), and the ShSPI low-dose groups (1 mg/kg), medium-dose groups (2 mg/kg), and high-dose groups (4 mg/kg).
Drug Administration: Starting on day 7 post-modeling, ShSPI peptide treatment groups were anesthetized with intramuscular avertin and received tracheal spray administration of the peptide. The low-dose group was treated with 1 mg/kg ShSPI peptide, the medium-dose group with 2 mg/kg, and the high-dose group with 4 mg/kg. The positive control group, without anesthesia, received 200 mg/kg pirfenidone (IPFD) via oral gavage. All groups were treated once daily for seven consecutive days.
The left lobe of the lung was collected from each mouse for total RNA extraction using RNAiso Plus, following the manufacturer’s instructions. The extracted RNA was quantified using a UV spectrophotometer. One microgram of total RNA was reverse transcribed into cDNA using a first-strand cDNA synthesis kit, following the provided protocol. Quantitative PCR (qPCR) was performed on a QuantStudio system using 2× SYBR Green qPCR Master Mix, and β-actin served as the internal control. The PCR reaction utilized a two-step protocol: 95 °C for 15 s, followed by 60 °C for 60 s, repeated for 40 cycles. Gene expression levels were calculated using the 2^−ΔΔCt method.

With `Cc1ccc(=O)n(-c2ccccc2)c1` [pirfenidone, reference compound] as the compound, how does the “mRNA content of pro-inflammatory cytokines (MCP-1, IL-6, IL-1β, IFN-γ) in lung tissue” value read?
Its value is “reduction”.
